Test results reported in patent US5688943A, “Benzodiazepine derivatives useful as CCK-receptor antagonists” (Yamanouchi Pharmaceutical Co., Ltd., priority 1992, dated 1997).

Key:
CCK-A receptors = biological target: T1, CCK-A receptors (Rattus norvegicus, UniProt P30551); experiment: Measurement of binding affinity for CCK-A receptors ([3H]L-364,718, rat pancreas membranes); set-up: species or system SD rat; details: [3H]L-364,718, 37° C., 30 minutes, read-out: Receptor binding affinity IC50, CCK-A
T1 construct: The pancreas of an SD rat was homogenized; from tissue; host or cells: SD rat pancreas membranes
T1 sequence (P30551 1-444): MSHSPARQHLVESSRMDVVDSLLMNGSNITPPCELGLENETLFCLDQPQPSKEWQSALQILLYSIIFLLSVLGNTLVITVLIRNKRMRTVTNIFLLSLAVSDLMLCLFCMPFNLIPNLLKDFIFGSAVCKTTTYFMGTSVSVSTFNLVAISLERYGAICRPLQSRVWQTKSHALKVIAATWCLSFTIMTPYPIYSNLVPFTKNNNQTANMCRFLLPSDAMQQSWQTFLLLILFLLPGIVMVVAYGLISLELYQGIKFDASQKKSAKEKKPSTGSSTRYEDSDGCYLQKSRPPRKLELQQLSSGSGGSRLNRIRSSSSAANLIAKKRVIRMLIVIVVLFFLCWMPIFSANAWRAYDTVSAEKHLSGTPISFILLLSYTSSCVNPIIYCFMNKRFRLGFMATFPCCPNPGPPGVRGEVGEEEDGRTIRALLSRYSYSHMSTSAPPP
Procedure: Measurement of binding affinity for CCK-A receptors
The pancreas of an SD rat was homogenized in a 20-fold volume of 50 mM Tris-HCl buffer (pH 7.7) by the use of a Polytrone-type homogenizer, the homogenate was twice centrifuged for 10 minutes at 50000 g by the use of an ultra-centrifuge, the precipitate thus obtained was suspended in a 40-fold volume of 50 mM Tris-HCl buffer (containing 0.2% BSA, 5 mM MgCl2, 0.1 mg/ml bacitracin and 5 mM DTT; pH 7.7), and the suspension was stored at -80° C. until the membrane preparations were required.
The membrane preparations were then warmed to room temperature, diluted 1:10 with the buffer and incubated at 37° C. for 30 minutes in the presence of [^3 H]L-364,718 and the test compound then separated by suction filtration. Non-specific binding was determined in the presence of 1 μM L-364,718. The amount of labelled ligand bound to the receptor was measured by the use of a liquid scintillation counter; IC50 values were determined, being that concentration of test compound required to inhibit specific binding by 50%
(§1) A high affinity for the CCK-A receptor in a gastrin/CCK-B antagonist is thought to be undesirable as it may lead to side-effects such as cholestasis and gall stone formation during therapy. Therefore it is preferable for the therapeutic agent to be selective for the CCK-B receptor. This selectivity is expressed by the ratio IC50 (CCK-A)/IC50 (CCK-B); the higher the value of this ratio the better is the selectivity.

CCK-B receptors = biological target: T2, CCK-B receptors (Rattus norvegicus, UniProt P30553); experiment: Measurement of binding affinity for CCK-B receptors ([125I]BH-CCK-8, rat brain membranes); set-up: species or system SD rats; details: for IC50: rat brain membranes, [125I]BH-CCK-8, 25° C., 120 minutes, pH 6.5, read-out: Receptor binding affinity IC50, CCK-B; for A/B Ratio: ratio IC50 (CCK-A)/IC50 (CCK-B)
T2 construct: the whole brain was immediately excised from each of the rats and homogenized; from tissue; host or cells: SD rat whole brain membranes
Procedure: Measurement of binding affinity for CCK-B receptors
About 100 SD rats were decapitated without anaesthesia, the whole brain was immediately excised from each of the rats and homogenized in 10-fold volume of 0.32M aqueous solution of sucrose by the use of a Teflon-coated homogenizer, the homogenate thus obtained was centrifuged for ten minutes at 900 g by the use of a cooled centrifuge, and the supernatant was further centrifuged for 15 minutes at 11500 g. The precipitate thus obtained was dispersed in 50 mM Tris-HCl buffer (pH 7.4) containing 0.08% Triton X-100, this suspension was allowed to stand for 30 minutes and again centrifuged for 15 minutes at 11500 g, the precipitate thus obtained was washed twice with 5 mM Tris-HCl buffer and twice with 50 mM Tris-HCl buffer in that order with centrifugal separation, the washed precipitate was suspended in 50 mM Tris-HCl buffer, and the suspension thus obtained was stored at -80° C. until the membrane preparation was required.
The membrane preparations were warmed to room temperature, diluted with 10 mM HEPES buffer (containing 130 mM NaCl, 5 mM MgCl2, 1 mM EGTA and 0.25 mg/ml bacitracin; pH 6.5) and incubated at 25° C. for 120 minutes in the presence of [^125 I]BH-CCK-8 and the test compound, then separated by suction filtration. Non-specific binding was determined in the presence of 1 μM CCK-8. The amount of labelled ligand bound to the receptor was measured by the use of a γ-counter; IC50 values were determined, being that concentration of test compound required to inhibit specific binding by 50%.
as §1

T2 sequence (P30553 whole entry): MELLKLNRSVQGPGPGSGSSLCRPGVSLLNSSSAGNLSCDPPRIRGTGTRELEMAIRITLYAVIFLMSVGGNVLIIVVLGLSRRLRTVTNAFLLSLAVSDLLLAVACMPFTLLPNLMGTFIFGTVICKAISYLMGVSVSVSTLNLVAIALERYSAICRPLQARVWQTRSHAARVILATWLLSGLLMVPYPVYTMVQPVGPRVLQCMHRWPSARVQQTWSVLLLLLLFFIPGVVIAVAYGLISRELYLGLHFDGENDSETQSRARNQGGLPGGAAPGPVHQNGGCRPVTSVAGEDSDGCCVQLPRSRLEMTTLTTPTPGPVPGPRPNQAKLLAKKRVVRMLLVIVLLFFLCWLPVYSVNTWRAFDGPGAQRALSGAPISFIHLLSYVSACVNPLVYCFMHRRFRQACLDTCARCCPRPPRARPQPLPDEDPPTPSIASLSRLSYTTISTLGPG

SMILES | IC50 (CCK-A receptors) [nM] | IC50 (CCK-B receptors) [nM] | A/B Ratio (CCK-B receptors)
O=C(Nc1cccc(C(=O)O)c1)N[C@@H]1N=C(c2ccccc2)c2ccccc2N(C[C@H](O)C2CCCC2)C1=O [Example 25, N-((3R)-1-((2R)-2-Cyclopentyl-2-hydroxyethyl)-2,3-dihydro-2-oxo-5-phenyl-1H-1,4-benzodiazepin-3-yl)-N'-(3-carboxyphenyl)urea] | > 10000 | 0.65 | > 15,000
Cc1cccc(NC(=O)NC2N=C(c3ccccn3)c3ccccc3N(CC(=O)C3CCCC3)C2=O)c1 (racemic) [Example 14, N-((3RS)-1-Cyclopentylcarbonylmethyl-2,3-dihydro-2-oxo-5-(2-pyridyl)-1H-1,4-benzodiazepin-3-yl)-N'-(3-methylphenyl)urea] | – | – | 22,000
NC(=O)c1cccc(NC(=O)NC2N=C(c3ccccc3)c3ccccc3N(CC(=O)C3CCCC3)C2=O)c1 (racemic) [Example 35, N-((3RS)-1-Cyclopentylcarbonylmethyl-2,3-dihydro-2-oxo-5-phenyl-1H-1,4-benzodiazepin-3-yl)-N'-(3-carboxamidophenyl)urea] | 1900 | 1.1 | 1,700
Cc1cccc(NC(=O)N[C@@H]2N=C(c3ccccc3)c3ccccc3N(C[C@@H](O)C3CCCC3)C2=O)c1 (racemic) [Example 13, N-((3RS)-1-((2SR)-2-Cyclopentyl-2-hydroxyethyl)-2,3-dihydro-2-oxo-5-phenyl-1H-1,4-benzodiazepin-3-yl)-N'-(3-methylphenyl)urea] | > 10000 | 0.11 | > 91,000
Cc1cccc(NC(=O)NC2N=C(c3ccccc3)c3ccccc3N(CC(=O)CC3CCCCC3)C2=O)c1 (racemic) [Example 32, N-((3RS)-1-Cyclohexylmethylcarbonylmethyl-2,3-dihydro-2-oxo-5-phenyl-1H-1,4-benzodiazepin-3-yl)-N'-(3-methylphenyl)urea] | 480 | – | 1,700
O=C(Nc1cccc([N+](=O)[O-])c1)NC1N=C(c2ccccc2)c2ccccc2N(CC(=O)C2CCCC2)C1=O (racemic) [Example 44, N-((3RS)-1-Cyclopentylcarbonylmethyl-2,3-dihydro-2-oxo-5-phenyl-1H-1,4-benzodiazepin-3-yl)-N'-(3-nitrophenyl)urea] | 1600 | 0.17 | 9,400
O=C(O)Cc1cccc(NC(=O)NC2N=C(c3ccccc3)c3ccccc3N(CC(=O)C3CCCC3)C2=O)c1 (racemic) [Example 31, N-((3RS)-1-Cyclopentylcarbonylmethyl-2,3-dihydro-2-oxo-5-phenyl-1H-1,4-benzodiazepin-3-yl)-N'-(3-carboxymethylphenyl)urea] | 3400 | 0.53 | 6,400
Cc1cccc(NC(=O)N[C@@H]2N=C(c3ccccc3)c3ccccc3N(C[C@H](O)C3CCCC3)C2=O)c1 [Example 19, N-((3R)-1-((2R)-2-Cyclopentyl-2-hydroxyethyl)-2,3-dihydro-2-oxo-5-phenyl-1H-1,4-benzodiazepin-3-yl)-N'-(3-methylphenyl)urea] | 1 | 0.92 | 1,200
O=C(Nc1cccc(C(=O)O)c1)NC1N=C(c2ccccn2)c2ccccc2N(CC(=O)C2CCCC2)C1=O (racemic) [Example 22, N-((3RS)-1-Cyclopentylcarbonylmethyl-2,3-dihydro-2-oxo-5-(2-pyridyl)-1H-1,4-benzodiazepin-3-yl)-N'-(3-carboxyphenyl)urea] | > 10000 | 3.5 | > 2,900
CC(C)(C)C(=O)CN1C(=O)C(NC(=O)Nc2cccc([N+](=O)[O-])c2)N=C(c2ccccc2)c2ccccc21 (racemic) [Example 45, N-((3RS)-1-tert-Butylcarbonylmethyl-2,3-dihydro-2-oxo-5-phenyl-1H-1,4-benzodiazepin-3-yl)-N'-(3-nitrophenyl)urea] | – | 0.16 | –
